Test systems include UO-31 renal; COLO 205 colon; 786-0 renal; NCI/ADR-RES ovarian; U251 CNS; LOX IMVI melanoma; UACC-62 melanoma; HCT-116 colon; OVCAR-8 ovarian; SK-MEL-28 melanoma.
What all share (assay): NCI-60 cell line screen, 48 h

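Where inhibition never reached the appropriate level, the endpoint shown equals the highest concentration tested. Otherwise, values were interpolated linearly from a five-concentration, 48-hour dose response in 96-well plates. The concentration for 50% growth inhibition is given as GI50. Definition used: TGI = concentration required for complete inhibition of growth.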

`O=[N+]([O-])c1cc2c(c([N+](=O)[O-])c1)Nc1ccccc1O2`: the GI50 was 2.76 µM in the experiment with UO-31 renal; 10.5 µM in the experiment on COLO 205 colon; 5.81 µM in the experiment with 786-0 renal; 3.41 µM in the experiment on NCI/ADR-RES ovarian; 3.32 µM in the experiment with U251 CNS; 4.67 µM with LOX IMVI melanoma. In addition, the GI50 with UACC-62 melanoma was 5.11 µM; in the experiment with HCT-116 colon, 4.49 µM; in the experiment with OVCAR-8 ovarian it was 10 µM; in the experiment with SK-MEL-28 melanoma, 19.5 µM. Also, the TGI was 36.5 µM with UO-31 renal; 27.8 µM in the experiment with COLO 205 colon; 39.1 µM with 786-0 renal; 55.4 µM in the experiment on NCI/ADR-RES ovarian; 22.6 µM in the experiment on U251 CNS; above 100 µM with LOX IMVI melanoma. Also, the TGI with UACC-62 melanoma was above 100 µM; with HCT-116 colon, 63 µM; in the experiment with OVCAR-8 ovarian, above 100 µM; in the experiment with SK-MEL-28 melanoma it was above 100 µM.
`Cc1cc(N(CCOS(C)(=O)=O)CCOS(C)(=O)=O)ccc1C=Nc1ccc(-c2csc(-c3ccc(Br)cc3)n2)cc1`: the TGI in the experiment on UO-31 renal amounted to 33.6 µM; in the experiment with COLO 205 colon, 2.89 µM; with 786-0 renal it was 20.7 µM; in the experiment on NCI/ADR-RES ovarian, 90.7 µM; with U251 CNS, 60.5 µM; in the experiment with LOX IMVI melanoma, 36.5 µM. The TGI in the experiment on UACC-62 melanoma is 22.3 µM; in the experiment on HCT-116 colon it was above 87.9 µM; in the experiment on OVCAR-8 ovarian, 61.6 µM; with SK-MEL-28 melanoma it was 99.6 µM.
With `Cc1cc2nc(C(Cl)Cl)nc(-c3ccccc3)n2n1`, the GI50 in the experiment with UO-31 renal is 5.02 µM; in the experiment on COLO 205 colon, 1.77 µM; in the experiment with 786-0 renal, 52.9 µM; in the experiment on NCI/ADR-RES ovarian, 3.78 µM; in the experiment with U251 CNS, 3.13 µM; in the experiment with LOX IMVI melanoma, 24.4 µM. The GI50 in the experiment with UACC-62 melanoma was 8.55 µM; in the experiment on HCT-116 colon, 3.45 µM; in the experiment with OVCAR-8 ovarian, 5.06 µM; in the experiment on SK-MEL-28 melanoma, 3.54 µM. Further, the TGI with UO-31 renal is 21.6 µM; with COLO 205 colon it was 4.56 µM; in the experiment with 786-0 renal, above 100 µM; with NCI/ADR-RES ovarian, 29.9 µM; in the experiment on U251 CNS it was 24.3 µM; in the experiment with LOX IMVI melanoma it was above 100 µM. Also, the TGI was 56 µM with UACC-62 melanoma, 24 µM in the experiment with HCT-116 colon, above 100 µM in the experiment on OVCAR-8 ovarian and 13.1 µM in the experiment on SK-MEL-28 melanoma.
For the compound `C[C@@H]1OCC2(CCN(c3cnc(Sc4ccnc(N)c4Cl)c(N)n3)CC2)[C@@H]1N`, the GI50 in the experiment on UO-31 renal is 0.926 µM; in the experiment with COLO 205 colon, above 100 µM; in the experiment with 786-0 renal, 98.6 µM; with NCI/ADR-RES ovarian it was above 100 µM; in the experiment with U251 CNS, 9.48 µM; in the experiment on LOX IMVI melanoma, above 100 µM. The GI50 in the experiment with UACC-62 melanoma was above 100 µM; in the experiment with HCT-116 colon, above 100 µM; in the experiment on OVCAR-8 ovarian, above 89.5 µM; with SK-MEL-28 melanoma it was above 100 µM. Moreover, the TGI in the experiment with UO-31 renal, in the experiment on COLO 205 colon, with 786-0 renal, with NCI/ADR-RES ovarian, in the experiment with U251 CNS and with LOX IMVI melanoma was above 100 µM in each case. Besides, the TGI in the experiment on UACC-62 melanoma, in the experiment on HCT-116 colon, in the experiment with OVCAR-8 ovarian and with SK-MEL-28 melanoma was above 100 µM throughout.
On to `CCCCCC/C=C1\CCC(CN(C)C)C1=O` (centres undefined), for which the TGI with UO-31 renal was 28.9 µM; in the experiment with COLO 205 colon, 8.4 µM; in the experiment with 786-0 renal it was 3.99 µM; in the experiment on NCI/ADR-RES ovarian, 44.4 µM; in the experiment on U251 CNS, 9.47 µM; with LOX IMVI melanoma, 3.79 µM. In addition, the TGI in the experiment on UACC-62 melanoma is 14.9 µM; in the experiment on HCT-116 colon, 9.55 µM; with OVCAR-8 ovarian, 13.5 µM; in the experiment with SK-MEL-28 melanoma, 12 µM.
Regarding `C=C1C(=O)O[C@H]2[C@H]1CC/C(COC(=O)NCc1cc(OC)cc(OC)c1)=C\CC[C@@]1(C)O[C@@H]21`, the GI50 with UO-31 renal was 1.51 µM; in the experiment on COLO 205 colon it was 1.35 µM; with 786-0 renal, 1.7 µM; in the experiment with NCI/ADR-RES ovarian, 2.98 µM; with U251 CNS, 3.16 µM; in the experiment on LOX IMVI melanoma, 0.549 µM. Moreover, the GI50 in the experiment with UACC-62 melanoma is 0.663 µM; in the experiment on HCT-116 colon it was 0.771 µM; in the experiment with OVCAR-8 ovarian it was 1.6 µM; in the experiment on SK-MEL-28 melanoma it was 1.47 µM. The TGI in the experiment with UO-31 renal came to 2.95 µM; in the experiment on COLO 205 colon, 3.09 µM; with 786-0 renal it was 3.45 µM; in the experiment on NCI/ADR-RES ovarian it was 10.2 µM; in the experiment on U251 CNS, 11.1 µM; in the experiment with LOX IMVI melanoma, 1.89 µM. Further, the TGI with UACC-62 melanoma was 2.56 µM; with HCT-116 colon, 2.06 µM; in the experiment with OVCAR-8 ovarian, 3.95 µM; in the experiment with SK-MEL-28 melanoma, 3.54 µM.
Consider `C=C(CN(C)C)C(=O)c1ccc(Oc2ccccc2)cc1`, for which the TGI in the experiment on UO-31 renal was 8.72 µM; in the experiment on COLO 205 colon, 3.35 µM; in the experiment on 786-0 renal, 4.99 µM; with NCI/ADR-RES ovarian, above 100 µM; in the experiment on U251 CNS it was 23.7 µM; in the experiment with LOX IMVI melanoma, 28.5 µM. In addition, the TGI amounted to 13 µM in the experiment on UACC-62 melanoma, 5.32 µM in the experiment on HCT-116 colon, 25.3 µM in the experiment with OVCAR-8 ovarian and 17.4 µM in the experiment on SK-MEL-28 melanoma.
For the compound `CN1CCN(CC(=O)N2c3cccc4cccc(c34)N(C(=O)CN3CCN(C)CC3)C2c2cn(-c3ccccc3)nc2-c2cccc([N+](=O)[O-])c2)CC1`, the GI50 in the experiment on UO-31 renal is 1.32 µM; in the experiment with COLO 205 colon, 1.84 µM; with 786-0 renal, 1.76 µM; in the experiment on NCI/ADR-RES ovarian, 3.68 µM; with U251 CNS it was 1.9 µM; in the experiment on LOX IMVI melanoma, 1.74 µM. For the same compound, the GI50 with UACC-62 melanoma is 1.77 µM; with HCT-116 colon, 1.65 µM; with OVCAR-8 ovarian, 2.35 µM; with SK-MEL-28 melanoma it was 1.81 µM. The TGI in the experiment on UO-31 renal came to 2.75 µM; in the experiment on COLO 205 colon, 3.82 µM; in the experiment with 786-0 renal, 3.21 µM; with NCI/ADR-RES ovarian, 14.3 µM; in the experiment with U251 CNS, 4 µM; in the experiment on LOX IMVI melanoma, 3.22 µM. In addition, the TGI turned out to be 3.38 µM in the experiment on UACC-62 melanoma, 3.1 µM in the experiment on HCT-116 colon, 5.79 µM in the experiment on OVCAR-8 ovarian and 3.36 µM in the experiment on SK-MEL-28 melanoma.
For `O=S(=O)(Nc1ccccn1)c1ccc(N=Nc2ccc(O)c3ncccc23)cc1`, the GI50 in the experiment with UO-31 renal was 0.696 µM; in the experiment with COLO 205 colon it was 7.62 µM; in the experiment on 786-0 renal it was 3.42 µM; in the experiment with NCI/ADR-RES ovarian, 1.02 µM; in the experiment with U251 CNS, 0.388 µM; in the experiment on LOX IMVI melanoma, 0.735 µM. Also, the GI50 with UACC-62 melanoma was 0.582 µM; with HCT-116 colon it was 0.888 µM; in the experiment with OVCAR-8 ovarian, 0.715 µM; with SK-MEL-28 melanoma, 1.72 µM. Besides, the TGI in the experiment with UO-31 renal was determined as 3.33 µM; in the experiment with COLO 205 colon it was 26.2 µM; in the experiment with 786-0 renal, 13.6 µM; in the experiment with NCI/ADR-RES ovarian, 12.8 µM; in the experiment with U251 CNS, 7.04 µM; in the experiment with LOX IMVI melanoma it was 16 µM. In addition, the TGI in the experiment with UACC-62 melanoma worked out at 3.03 µM; in the experiment with HCT-116 colon it was 22.6 µM; in the experiment with SK-MEL-28 melanoma, 26 µM.

For the origin of these results see PubChem BioAssay (NCI).
